Results from article PMC12077799, “Fragment-based drug discovery for transthyretin kinetic stabilisers using a novel capillary zone electrophoresis method” (PLOS One, 2025).
Like-named read-outs stand apart in the source and are kept apart here.

Assays:
[1] = molecular target: T1, Human transthyretin (TTR) thyroxine binding sites (Homo sapiens, UniProt P02766); test: TTR CZE Free Probe Peak Height Restoration (FPPHR) assay, 8-ANS displacement; settings: for FPPHR % at 50 μM: compound 50 μM in Running Buffer; for FPPHR % at 300 μM ± SD (N = 3): fragment 300 μM in Running Buffer, injected 30 μM 8-ANS / 20 μM TTR, hit cut-off 10%; for FPPHR % tested at 10 µM: compound 10 µM in Running Buffer
T1 construct: purchased SCIPAC (Sittingbourne, Kent, UK) P171-1
Description: CZE assays development and fragment screening were performed on a Beckman P/ACE MDQ capillary electrophoresis system (Beckman Coulter Inc., Brea, CA) operated by 32 Karat™ software. All capillaries (Polymicro Technologies, Phoenix, AZ) used were internally coated with polyvinyl alcohol and of around 30 cm in length, 75 microns in internal diameter. Capillary temperature was maintained at 20 °C by recirculating fluorinated fluid coolant during electrophoresis. Sample trays and buffer trays temperature were maintained at 4°C and ambient respectively. For every electrophoretic run, the capillary was pressure rinsed and prefilled with electrophoresis buffer also known as background electrolyte (termed as Running Buffer hereafter) before injection. After each electrophoretic run, the capillary was rinsed with Running Buffer and H2O by pressure (20 psi for 1 minute). Three Running Buffers (RB), A: 20 mM Tris pH 7.5, 1 mM KCl, 1.62 mM NaCl; B: 20 mM HEPES pH 7.0, 2 mM CaCl2 and C: 20 mM HEPES pH 7.0, 2 mM CaCl2, 1% DMSO were used. All CE traces were analysed by 32Karat™ Software with a built-in automatic peak integration algorithm.
Control 1 Inject Buffer (IB) containing 30 μM 8-ANS was prepared by mixing 1 μL of 3 mM 8-ANS DMSO stock with 99 μL of Running Buffer B in a 0.2 mL PCR tube. Control 2 Inject Buffer was prepared by mixing 1μL of 3 mM 8-ANS DMSO stock with 20 μL of 100 μM tetrameric TTR stock in Running Buffer B and 79 μL of Running Buffer B. The final concentrations (f/c) were 8-ANS 30 μM, TTR 20 μM and 1% DMSO v/v.
The maximum Free Probe Peak Height (Control 1 Peak Height) was determined by Outlet Injection (see Fig 1) of Control 1 with an injection pressure of 0.5 psi for 5 seconds (equivalent to ≈ 20–30 nL). An identical injection of Control 2 provides the minimum Free Probe Peak Height (Control 2 Peak Height) enabling calculation of % of bound and unbound, i.e., free 8-ANS. To determine the 8-ANS peak height in Control 1 and Control 2, the capillary was prefilled with Buffer C and electrophoresis carried out at 10 kV (Normal Polarity, Fig 1) with UV monitoring at 230 nm. For displacement analysis, ligand DMSO stock was diluted in Buffer B and used to fill the capillary as the Running Buffer. Electrophoresis commenced after injection of Control 2, thus the injected 8-ANS-TTR complex migrates inside a capillary filled with the test ligand. The observed 8-ANS peak height is defined as Sample Peak Height and the displaced 8-ANS can be calculated as:
\% of Free Probe Peak Height Restoration= Sample Peak Height−Control 2 Peak Height/Control 1 Peak Height−Control 2 Peak Height

[2] = molecular target: T2, Human transthyretin (TTR) (Homo sapiens, UniProt P02766); test: Co-crystallisation of TTR-ligand complex, X-ray hit confirmation; format: binding; settings: for Confirmed by X-ray: fragment seen in ligand-omitted difference density at >= 2σ in one or both binding sites, full or partial density; for ligand electron density, binding sites occupied in co-crystal structure: in words
T2 construct: purchased SCIPAC (Sittingbourne, Kent, UK) P171-1
Description: Crystals were grown by vapor diffusion using a published crystallisation cocktail (100 mM HEPES pH 7.5, 200 mM CaCl2, 28% v/v PEG400) at 21 °C [29]. The hanging drop contained 1 μL of crystallisation cocktail, 1 μL of diluted ligand and 1 μL of TTR protein solution (85 μM). […] Crystals were harvested and flash cooled in a N2 cryostream or dipped into liquid ethane without cryoprotectant. Data was collected at Diamond Light Source (Oxon, UK) beamline I24, I04 or I04-1 (Pilatus 6M or ADSC Q315) or the European Synchrotron Radiation Facility (ESRF, Grenoble, France) beamline ID29 (Pilatus 6M-F) or in-house (Bruker X8 Diffractometer with APEXII CCD detector). Crystal unit cell was initially indexed by software MOSFLM [30] and LABELIT [31] within the EDNA [32] automatic data processing workflow. Diffraction image integration was performed by XDS [33] and reflection intensities were scaled by SCALA [34] or by PROTEUM2 if collected in-house. Phases were obtained by molecular replacement method using PHASER [35], 1DVQ from the Protein Data Bank (PDB) was used as the search model. Atomic positions of the initial model were refined by REFMAC5 [36]. Model building and ligand fitting was completed using COOT [37]. Model graphics were generated using CCP4MG [38]. Crystallographic statistics of all structures can be found in S4 Table.

[3] = molecular target: T1, Human transthyretin (TTR) thyroxine binding sites; test: TTR CZE Free Probe Peak Height Restoration (FPPHR) assay, 8-ANS displacement; settings: 30 μM 8-ANS with 20 μM TTR
[4] = molecular target: TTR thyroxine binding sites; settings: cited from earlier work
[5] = molecular target: T3, TTR in undiluted normal human reference plasma (Homo sapiens, UniProt P02766); test: 125I-T4 displacement assay in neat normal human plasma; format: binding; settings: for IC50: neat normal human plasma, 4-parameter logistic fit
T3 construct: The TTR in plasma was immunoprecipitated by sheep anti-human prealbumin polyclonal antibody; tissue Precision Biologic Inc., Nova Scotia, Canada
Excerpt: The assay was adapted from one described previously. Briefly, test ligand and ^125I-T4 (Perkin Elmer Inc., Waltham, MA) were mixed with undiluted normal human reference plasma (Precision Biologic Inc., Nova Scotia, Canada). The TTR in plasma was immunoprecipitated by sheep anti-human prealbumin polyclonal antibody (The Binding Site Group Ltd., Birmingham, UK). The immunoprecipitate was washed with buffer and their radioactivity measured with a 2470 WIZARD automatic gamma counter (Perkin Elmer Inc., Waltham, MA). […] Percentage of total radioligand binding for samples of different ligand concentration was then calculated as follows: […]
To calculate IC50 values, percentage of total radioligand binding at different concentration points were entered in SigmaPlot™ 11.0. Titration curves were done in triplicates with a minimum of 5 data points fitted by 4-Parameter Logistic Function.

TTR = molecular target: T4, TTR (Homo sapiens, UniProt P02766); test: Isothermal titration calorimetry (ITC); format: binding; settings: for Kd: 25 °C, PBS pH 7.8, 3% DMSO; for Kd1 LE (Ligand Efficiency, ΔG/N) / Kd2 LE (Ligand Efficiency, ΔG/N): N = number of non-hydrogen atoms
T4 construct: purchased SCIPAC (Sittingbourne, Kent, UK) P171-1
Description: All ITC experiments were conducted on an iTC200 calorimeter (GE Healthcare), and the settings were 25 °C, stir at 1000 RPM, 1–2 μL injection spaced with 100–150 seconds, reference power: 6 μcal/sec. Isotherms were fitted using ORIGIN 7 software (OriginLab, MA, USA). To prepare TTR ITC protein solution (5 mL), purified and freeze-dried human TTR was weighted and dissolved in 310 μL of pure water. The reconstituted protein solution was then desalted by spin column (Bio-Rad, Bio-Gel P6) and the eluted volume was transferred to a 15mL falcon tube. The protein solution was further diluted with 10x Phosphate Buffered Saline (PBS, 500 μL), DMSO (150 μL) and water, (f/c: 4.3 mM Na2HPO4, 137 mM NaCl, 2.7 mM KCl, 1.47 mM KH2PO4, 3% DMSO v/v, TTR 19.35–25 μM, pH 7.8). UV A260/280 was measured to obtain the actual protein concentration using a calculated extinction coefficient of 18450 M^-1 cm^-1. To prepare ligand ITC solution (1 mL), 30 μL of ligand stock in DMSO was diluted with 10x PBS (100 μL) and water (f/c: 4.3 mM Na2HPO4, 137 mM NaCl, 2.7 mM KCl, 1.47 mM KH2PO4, 3% DMSO v/v, Ligand 280–600 μM, pH 7.8).

[6] = read-out: Mean 125I-T4 IC50 ± SD (N = 3)

N#Cc1c[nH]c2ccccc12 [SFL000013]
FPPHR % at 50 μM ([1]; 10% minimum for a binder): 18.13%
FPPHR % at 100 μM ([1]; compound 100 μM in Running Buffer, 10% minimum for a binder): 21.53%
FPPHR % at 300 μM ± SD (N = 3) [1]: 23.08 ± 6.08%
Confirmed by X-ray [2]: Yes 2 Sites, Full, 9H7G

O=S(=O)(O)c1cccc2cccc(Nc3ccccc3)c12 [Compound 8-ANS, 8-Anilino-1-Naphthalenesulfonic acid]
% of 8-ANS bound to TTR, deduced from free 8-ANS peak heights ([1]; 30 μM 8-ANS with 20 μM TTR): around 60%
% of 8-ANS bound to TTR, deduced from free 8-ANS peak areas [3]: ~35%
Kd ([4]; read-out: Kd1, 8-ANS at TTR thyroxine binding sites): 1.05 µM
Kd ([4]; read-out: Kd2, 8-ANS at TTR thyroxine binding sites): 4.79 µM
Kd ([4]; read-out: previously reported Kd values): 1 to 5 µM

Nc1n[nH]c2nccc(-c3ccccc3)c12 [CDS014361]
FPPHR % at 50 μM ([1]; 10% minimum for a binder): 36.17% tested at 50 µM
Confirmed by X-ray [2]: Yes 9H7L
IC50 [5, 6]: 100 ± 11 µM

Cc1n[nH]c(N)c1-c1ccccc1 [SFL001561]
Confirmed by X-ray [2]: Yes 9H7J
IC50 [5, 6]: 488 ± 107 µM

O=C(O)c1ccccc1Nc1ccccc1 [N-Phenylanthranilic Acid, reference compound]
ligand electron density, binding sites occupied in co-crystal structure [2]: occupied both sites
IC50 [5]: 180 ± 61.8 µM

Cc1n[nH]c(C)c1-c1cccc2cccnc12 [Compound 94320297]
FPPHR % tested at 10 µM ([1]; 10% minimum for a binder): 33.32% tested at 10 µM
FPPHR % at 50 μM ([1]; 10% minimum for a binder): 59.77%
Confirmed by X-ray [2]: Yes 9H7K
Kd (TTR; read-out: ITC Kd1 ± SD (N = 3)): 0.064 µM
Kd (TTR; read-out: ITC Kd2 ± SD (N = 3)): 0.91 µM
Kd1 LE (Ligand Efficiency, ΔG/N) (TTR): 0.58 kcal/mol
Kd2 LE (Ligand Efficiency, ΔG/N) (TTR): 0.48 kcal/mol
IC50 [5, 6]: 18.9 ± 6.14 µM

Cc1n[nH]c(Cl)c1-c1cccc2cccnc12 [SEL101928]
Kd (TTR; read-out: ITC Kd1 ± SD (N = 3)): 0.0497 µM
Kd (TTR; read-out: ITC Kd2 ± SD (N = 3)): 0.331 µM
Kd1 LE (Ligand Efficiency, ΔG/N) (TTR): 0.59 kcal/mol
Kd2 LE (Ligand Efficiency, ΔG/N) (TTR): 0.52 kcal/mol
IC50 [5, 6]: 20.4 ± 4.13 µM

NS(=O)(=O)c1cc(Cl)cc(Cl)c1 [SFL000006, 3,5-Dichlorobenzenesulphonamide]
FPPHR % at 300 μM ± SD (N = 3) [1]: 12.18 ± 6.63 (N = 4) %
Confirmed by X-ray [2]: Yes 1 Site, Partial, 9H7A
ligand electron density, binding sites occupied in co-crystal structure [2]: only observed in one site
125I-T4 displacement at maximal concentration ([5]; 14.3mM, no plateau reached): ≈ 60%
IC50 [5]: 8880 ± 3670 µM

Cc1n[nH]c(-c2ccnc3ccccc23)n1 [Compound 71575026]
FPPHR % tested at 10 µM ([1]; 10% minimum for a binder): 17.07% tested at 10 µM
Confirmed by X-ray [2]: Yes 9H7N
IC50 [5, 6]: 238 ± 118 µM

Nc1cc(Cl)cc(Cl)c1 [3,5-Dichloroaniline, reference compound]
change of free 8-ANS peak height with compound in the Running Buffer ([1]; in words, concentrations (e.g. Tafamidis 10 µM, Diphenylamine 250 μM, Verapamil 300 µM, Acetazolamide 500 µM)): significant free 8-ANS peak height increase
ligand electron density, binding sites occupied in co-crystal structure [2]: only observed in one site
IC50 [5]: 802 ± 319 µM
125I-T4 displacement at plateau ([5]; neat plasma, exemplary curve): 60%
total radioligand binding at plateau ([5]; neat plasma, exemplary curve): around 40%

Nc1nc(-c2cccc3cccnc23)c2cn[nH]c2n1 [Compound 96299361]
FPPHR % tested at 10 µM ([1]; 10% minimum for a binder): 23.20% tested at 10 µM
Confirmed by X-ray [2]: Yes 9H7M
IC50 [5, 6]: 105 ± 16.8 µM
